Data from ChEMBL document CHEMBL1201862, “PubChem BioAssay data set” (2004).
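Exposure lasted 48 hours, with cells grown in 96-well plates and compounds tested at five concentrations. At the GI50, growth is halved.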 Active and inactive are the calls of the source. Rule as the data show it: active = GI50 up to about 1.1 µM and inactive = higher.

Experiments:
Experiment in all cases: NCI tumour cell line growth inhibition, 48 h
UACC-62 = test system: UACC-62
SNB-19 = test system: SNB-19
DMS-273 = test system: DMS-273
M14 = test system: M14
DLD-1 = test system: DLD-1
Hs-578T = test system: Hs-578T
RPMI-8226 = test system: RPMI-8226
SF-539 = test system: SF-539
OVCAR-8 = test system: OVCAR-8
MDA-MB-231 = test system: MDA-MB-231
SF-295 = test system: SF-295
IGROV-1 = test system: IGROV-1
K562 = test system: K562
ACHN = test system: ACHN
NCI-H460 = test system: NCI-H460
HOP-92 = test system: HOP-92
EKVX = test system: EKVX
A549 = test system: A549
BT-549 = test system: BT-549
HCT-15 = test system: HCT-15
SW-620 = test system: SW-620
UACC-257 = test system: UACC-257
SK-MEL-28 = test system: SK-MEL-28
NCI-H522 = test system: NCI-H522
PC-3 = test system: PC-3
OVCAR-5 = test system: OVCAR-5
T47D = test system: T47D
MDA-MB-435 = test system: MDA-MB-435
CAKI-1 = test system: CAKI-1
786-0 = test system: 786-0
HCC 2998 = test system: HCC 2998
A498 = test system: A498
LXFL 529 = test system: LXFL 529
NCI/ADR-RES = test system: NCI/ADR-RES
DU-145 = test system: DU-145
OVCAR-4 = test system: OVCAR-4
OVCAR-3 = test system: OVCAR-3
HL-60 = test system: HL-60
XF498 = test system: XF498
SK-OV-3 = test system: SK-OV-3
U-251 = test system: U-251
SNB-78 = test system: SNB-78
LOX IMVI = test system: LOX IMVI
HT-29 = test system: HT-29
MCF7 = test system: MCF7
UO-31 = test system: UO-31
NCI-H23 = test system: NCI-H23
Malme-3M = test system: Malme-3M
KM12 = test system: KM12
MDA-N = test system: MDA-N
CCRF-CEM = test system: CCRF-CEM
COLO 205 = test system: COLO 205
MOLT-4 = test system: MOLT-4
RXF 393 = test system: RXF 393
KM-20L2 = test system: KM-20L2
SF-268 = test system: SF-268
SR = test system: SR
SK-MEL-5 = test system: SK-MEL-5
HOP-62 = test system: HOP-62
HCT-116 = test system: HCT-116
HOP-18 = test system: HOP-18
TK-10 = test system: TK-10
SNB-75 = test system: SNB-75
SK-MEL-2 = test system: SK-MEL-2
SN12C = test system: SN12C
NCI-H226 = test system: NCI-H226
M19-MEL = test system: M19-MEL
DMS-114 = test system: DMS-114

Measured: GI50

COc1cccc2c1C(=O)c1c(O)c3c(c(O)c1C2=O)C[C@@](O)(C(=O)CO)CC3OC1CC(N)C(OC2CCCCO2)C(C)O1 (some centres undefined)
inactive: M14 1.2 µM | DLD-1 1.82 µM | EKVX 1.39 µM | UACC-257 1.17 µM | SK-MEL-28 1.5 µM | OVCAR-5 1.71 µM | HCC 2998 7.19 µM | OVCAR-3 1.56 µM | SNB-78 1.5 µM | COLO 205 1.21 µM | RXF 393 1.48 µM | TK-10 1.37 µM | SK-MEL-2 1.85 µM | SN12C 1.27 µM
1610 nM: HCT-15
active: UACC-62 918 nM | SNB-19 0.437 µM | DMS-273 0.308 µM | Hs-578T 164 nM | RPMI-8226 330 nM | SF-539 0.267 µM | OVCAR-8 350 nM | MDA-MB-231 80.2 nM | SF-295 0.23 µM | IGROV-1 0.929 µM | K562 646 nM | ACHN 0.24 µM | NCI-H460 0.0134 µM | HOP-92 0.0715 µM | A549 0.256 µM | BT-549 176 nM | SW-620 265 nM | NCI-H522 541 nM | PC-3 46.1 nM | T47D 8.71 nM | MDA-MB-435 80.7 nM | CAKI-1 0.916 µM | 786-0 0.272 µM | A498 309 nM | LXFL 529 0.668 µM | NCI/ADR-RES 959 nM | DU-145 3.1 nM | OVCAR-4 0.0366 µM | HL-60 207 nM | XF498 0.54 µM | SK-OV-3 0.807 µM | U-251 0.402 µM | LOX IMVI 356 nM | HT-29 0.853 µM | MCF7 1 nM | UO-31 0.762 µM | NCI-H23 478 nM | Malme-3M 0.664 µM | KM12 0.0399 µM | MDA-N 124 nM | CCRF-CEM 168 nM | MOLT-4 31.5 nM | KM-20L2 0.561 µM | SF-268 0.785 µM | SR 0.0314 µM | SK-MEL-5 0.299 µM | HOP-62 0.144 µM | HCT-116 324 nM | HOP-18 0.0977 µM | SNB-75 0.417 µM | NCI-H226 0.419 µM

COC1CC2C3/C(=N/Nc4ccc([N+](=O)[O-])cc4[N+](=O)[O-])CCC2(C)C3C1 (centres undefined)
> 100000 nM: HCT-15
inactive: UACC-62 > 10000 nM | SNB-19 > 10 µM | DMS-273 > 10 µM | M14 > 10 µM | DLD-1 > 10 µM | RPMI-8226 78000 nM | SF-539 > 10 µM | OVCAR-8 > 100000 nM | SF-295 > 10 µM | IGROV-1 > 10 µM | K562 75500 nM | ACHN > 10 µM | NCI-H460 > 100 µM | HOP-92 > 10 µM | A549 > 100 µM | SW-620 > 10000 nM | UACC-257 > 100 µM | SK-MEL-28 > 100 µM | NCI-H522 > 10000 nM | OVCAR-5 > 10 µM | CAKI-1 > 10 µM | 786-0 > 10 µM | HCC 2998 > 10 µM | A498 > 10000 nM | LXFL 529 > 10 µM | OVCAR-4 > 10 µM | OVCAR-3 > 10 µM | HL-60 52600 nM | M19-MEL > 10 µM | XF498 > 100 µM | SK-OV-3 > 10 µM | U-251 > 10 µM | LOX IMVI > 10000 nM | HT-29 > 10 µM | DMS-114 > 100 µM | UO-31 > 10 µM | NCI-H23 > 10000 nM | Malme-3M > 10 µM | KM12 > 100 µM | COLO 205 > 10 µM | MOLT-4 42300 nM | KM-20L2 > 10 µM | SF-268 > 100 µM | SR 37.1 µM | SK-MEL-5 > 10 µM | HOP-62 > 10 µM | HCT-116 > 100000 nM | HOP-18 > 10 µM | TK-10 > 100 µM | SNB-75 > 10 µM | SK-MEL-2 > 10 µM | SN12C > 10 µM | NCI-H226 > 10 µM

C/C=C1/C(=O)O[C@]23C=C[C@@H]4C(C(=O)OC)=CO[C@H](O[C@@H]12)[C@@H]43 [PLUMERICIN]
inactive: SNB-19 3.56 µM | DMS-273 2.32 µM | SF-539 2.34 µM | SF-295 2.46 µM | IGROV-1 1.19 µM | NCI-H460 2.08 µM | HOP-92 1.61 µM | EKVX 1.3 µM | A549 3.47 µM | OVCAR-5 3.66 µM | CAKI-1 1.14 µM | HCC 2998 2.68 µM | OVCAR-4 1.52 µM | XF498 1.38 µM | SK-OV-3 3.93 µM | U-251 2.7 µM | SNB-78 1.94 µM | HT-29 2.18 µM | DMS-114 1.12 µM | UO-31 3.12 µM | Malme-3M 1.93 µM | KM12 2.28 µM | KM-20L2 2.17 µM | SF-268 1.28 µM | SK-MEL-5 2.12 µM | HOP-62 6.38 µM | HOP-18 4.67 µM | SNB-75 3.34 µM | SK-MEL-2 1.44 µM | SN12C 1.98 µM | NCI-H226 2.44 µM
active: UACC-62 815 nM | DLD-1 0.432 µM | RPMI-8226 423 nM | OVCAR-8 594 nM | K562 652 nM | SW-620 432 nM | UACC-257 0.592 µM | SK-MEL-28 1 µM | NCI-H522 353 nM | A498 838 nM | NCI/ADR-RES 676 nM | OVCAR-3 0.861 µM | HL-60 240 nM | M19-MEL 0.726 µM | LOX IMVI 336 nM | MCF7 832 nM | NCI-H23 916 nM | CCRF-CEM 341 nM | COLO 205 1 µM | MOLT-4 459 nM | RXF 393 0.55 µM | HCT-116 451 nM
671 nM: HCT-15
